This is an account of results in patent US10927354B2, “D-type amino acid dehydrogenase” (Kureha Corporation, priority 2017, dated 2021).

Holding throughout (assay type): biochemical, Numidum massiliense
For assay [1], the system named is D-type amino acid dehydrogenase derived from N. massiliense (wild type). Put plainly: D-amino acid synthesis activity, wild type enzyme. The following applies: 5 mM 2-oxo acid, 200 mM ammonium chloride, pH 9.5, 50° C.; for D-amino acid synthesis activity (specific activity), Wild type, NADH: 0.1 mM NADH; for D-amino acid synthesis activity (specific activity), Wild type, NADPH: 0.1 mM NADPH. Here is the method: (§1) The activity of the enzyme was measured by determining a decrease in absorbance at wavelength of 340 nm of NADPH or NADH produced by the catalytic reaction of the enzyme. […] The absorbance was measured by an ultraviolet-visible spectrophotometer UV-1800 (available from SHIMADZU).

For assay [2], the system named is three-mutation introduced D-type amino acid dehydrogenase (Thr174Ile, Arg184Met, His230Asn). Nature of the assay: D-amino acid synthesis activity, three-mutation enzyme. The following applies: 5 mM 2-oxo acid, 200 mM ammonium chloride, pH 9.5, 50° C.; for D-amino acid synthesis activity (specific activity), Three-mutation enzyme, NADH: 0.1 mM NADH; for D-amino acid synthesis activity (specific activity), Three-mutation enzyme, NADPH: 0.1 mM NADPH.
Excerpt: DNA encoding polypeptide in which three types of mutations (Thr174Ile, Arg184Met, and His230Asn) were introduced into the amino acid sequence of D-type amino acid dehydrogenase derived from N. massiliense was obtained by synthesis. This was cleaved with restriction enzymes NdeI and EcoRI, separated by agarose gel electrophoresis, and then extracted and purified from the gel. DNA fragments after a restriction enzyme treatment were incorporated into restriction enzyme sites (NdeI and EcoRI) of pET-21a(+) (available from Novagen) of a plasmid for protein expression by a ligation reaction to construct an expression vector that retains three-mutation introduced D-type amino acid dehydrogenase gene. The expression vector was constructed such that the three-mutation introduced D-type amino acid dehydrogenase gene was incorporated into downstream of the T7 promoter and the […] binding site, and upstream of the T7 terminator.
as §1

For assay [3], the system named is five-mutation introduced D-type amino acid dehydrogenase (Met155Leu, Val159Gly, Thr174Ile, Arg184Met, His230Asn). Put plainly: D-amino acid synthesis activity, five-mutation enzyme. The following applies: 5 mM 2-oxo acid, 200 mM ammonium chloride, pH 9.5, 50° C.; for D-amino acid synthesis activity (specific activity), Five-mutation enzyme, NADH: 0.1 mM NADH; for D-amino acid synthesis activity (specific activity), Five-mutation enzyme, NADPH: 0.1 mM NADPH. How it is done:
In order to prepare a gene for a mutant enzyme in which five types of mutations (Met155Leu, Val159Gly, Thr174Ile, Arg184Met, and His230Asn) are introduced into the D-type amino acid dehydrogenase derived from N. massiliense, the six mutation-introduced D-type amino acid dehydrogenase/pET-21a(+) prepared above was used as a template to prepare the expression vector by PCR using “PrimeSTAR Max DNA Polymerase” available from Takara Bio Inc. PCR was performed according to the manufacturer's protocol. A PCR reaction solution was prepared by containing 0.3 μM of each of the following primers and 50 ng of templet DNA as described above.
as §1

Assay [4] deals with six-mutation introduced D-type amino acid dehydrogenase (Asp95Ser, Met155Leu, Val159Gly, Thr174Ile, Arg184Met, His230Asn). Nature of the assay: D-amino acid synthesis activity, six-mutation enzyme. The following applies: 5 mM 2-oxo acid, 200 mM ammonium chloride, pH 9.5, 50° C.; for D-amino acid synthesis activity (specific activity), Six-mutation enzyme, NADH: 0.1 mM NADH; for D-amino acid synthesis activity (specific activity), Six-mutation enzyme, NADPH: 0.1 mM NADPH. Here is the method:
DNA encoding polypeptide into which six types of mutations (Asp95Ser, Met155Leu, Val159Gly, Thr174Ile, Arg184Met, and His230Asn) were introduced into the amino acid sequence of D-type amino acid dehydrogenase derived from N. massiliense was obtained by synthesis. An expression vector that retains the six-mutation introduced D-type amino acid dehydrogenase gene was further constructed in the same manner as described above.
as §1

As to `CC(C)C(=O)C(=O)O` [2-oxo-3-methylbutanoic acid], in assay [1], the “D-amino acid synthesis activity (specific activity), Wild type, NADH” value amounted to 0.0012 µmol/min/mg and the “D-amino acid synthesis activity (specific activity), Wild type, NADPH” value was 0.26 µmol/min/mg. For the same compound, in assay [2], the “D-amino acid synthesis activity (specific activity), Three-mutation enzyme, NADH” value was determined as 0.043 µmol/min/mg and the “D-amino acid synthesis activity (specific activity), Three-mutation enzyme, NADPH” value came to 2.5 µmol/min/mg. Also, in assay [3], the “D-amino acid synthesis activity (specific activity), Five-mutation enzyme, NADH” value turned out to be 0.018 µmol/min/mg and the “D-amino acid synthesis activity (specific activity), Five-mutation enzyme, NADPH” value amounted to 2.4 µmol/min/mg. In assay [4], the “D-amino acid synthesis activity (specific activity), Six-mutation enzyme, NADH” value is “No” and the “D-amino acid synthesis activity (specific activity), Six-mutation enzyme, NADPH” value worked out at 0.051 µmol/min/mg.

With `CCC(C)C(=O)C(=O)O` (centres unmarked) [2-oxo-3-methylpentanoic acid], in assay [1], the “D-amino acid synthesis activity (specific activity), Wild type, NADH” value is listed as “No” and the “D-amino acid synthesis activity (specific activity), Wild type, NADPH” value was determined as 0.18 µmol/min/mg. For the same compound, in assay [2], the “D-amino acid synthesis activity (specific activity), Three-mutation enzyme, NADH” value is 0.043 µmol/min/mg and the “D-amino acid synthesis activity (specific activity), Three-mutation enzyme, NADPH” value came to 4.7 µmol/min/mg. Further, in assay [3], the “D-amino acid synthesis activity (specific activity), Five-mutation enzyme, NADH” value turned out to be 0.025 µmol/min/mg and the “D-amino acid synthesis activity (specific activity), Five-mutation enzyme, NADPH” value is 4.0 µmol/min/mg. In addition, in assay [4], the “D-amino acid synthesis activity (specific activity), Six-mutation enzyme, NADH” value came to 0.0030 µmol/min/mg and the “D-amino acid synthesis activity (specific activity), Six-mutation enzyme, NADPH” value came out at 0.23 µmol/min/mg.

Turning to `O=C(O)C(=O)Cc1ccccc1` [2-oxo-3-phenylpropanoic acid], in assay [1], the “D-amino acid synthesis activity (specific activity), Wild type, NADH” value was 0.011 µmol/min/mg and the “D-amino acid synthesis activity (specific activity), Wild type, NADPH” value was determined as 1.5 µmol/min/mg. Moreover, in assay [2], the “D-amino acid synthesis activity (specific activity), Three-mutation enzyme, NADH” value came to 0.028 µmol/min/mg and the “D-amino acid synthesis activity (specific activity), Three-mutation enzyme, NADPH” value is 1.5 µmol/min/mg. Also, in assay [3], the “D-amino acid synthesis activity (specific activity), Five-mutation enzyme, NADH” value came out at 0.012 µmol/min/mg and the “D-amino acid synthesis activity (specific activity), Five-mutation enzyme, NADPH” value was found to be 2.7 µmol/min/mg. Moreover, in assay [4], the “D-amino acid synthesis activity (specific activity), Six-mutation enzyme, NADH” value was 0.018 µmol/min/mg and the “D-amino acid synthesis activity (specific activity), Six-mutation enzyme, NADPH” value is 2.1 µmol/min/mg.

`CSCCC(=O)C(=O)O` [2-oxo-4-(methylthio)butanoic acid]: in assay [1], the “D-amino acid synthesis activity (specific activity), Wild type, NADH” value is on record as “No” and the “D-amino acid synthesis activity (specific activity), Wild type, NADPH” value was determined as 2.0 µmol/min/mg. Also, in assay [2], the “D-amino acid synthesis activity (specific activity), Three-mutation enzyme, NADH” value stood at 0.013 µmol/min/mg and the “D-amino acid synthesis activity (specific activity), Three-mutation enzyme, NADPH” value is 5.2 µmol/min/mg. In assay [3], the “D-amino acid synthesis activity (specific activity), Five-mutation enzyme, NADH” value is 0.069 µmol/min/mg and the “D-amino acid synthesis activity (specific activity), Five-mutation enzyme, NADPH” value is 12.3 µmol/min/mg. Also, in assay [4], the “D-amino acid synthesis activity (specific activity), Six-mutation enzyme, NADH” value came out at 0.024 µmol/min/mg and the “D-amino acid synthesis activity (specific activity), Six-mutation enzyme, NADPH” value was determined as 2.8 µmol/min/mg.

`CC(C)CC(=O)C(=O)O` [2-oxo-4-methylpentanoic acid]: in assay [1], the “D-amino acid synthesis activity (specific activity), Wild type, NADH” value is “No” and the “D-amino acid synthesis activity (specific activity), Wild type, NADPH” value came out at 0.803 µmol/min/mg. Besides, in assay [2], the “D-amino acid synthesis activity (specific activity), Three-mutation enzyme, NADH” value turned out to be 0.044 µmol/min/mg and the “D-amino acid synthesis activity (specific activity), Three-mutation enzyme, NADPH” value stood at 4.6 µmol/min/mg. For the same compound, in assay [3], the “D-amino acid synthesis activity (specific activity), Five-mutation enzyme, NADH” value was found to be 0.055 µmol/min/mg and the “D-amino acid synthesis activity (specific activity), Five-mutation enzyme, NADPH” value is 9.0 µmol/min/mg. In assay [4], the “D-amino acid synthesis activity (specific activity), Six-mutation enzyme, NADH” value worked out at 0.011 µmol/min/mg and the “D-amino acid synthesis activity (specific activity), Six-mutation enzyme, NADPH” value was 1.2 µmol/min/mg.

For `O=C(O)CC(=O)C(=O)O` [2-oxobutanedioic acid], in assay [1], the “D-amino acid synthesis activity (specific activity), Wild type, NADH” value worked out at 0.13 µmol/min/mg and the “D-amino acid synthesis activity (specific activity), Wild type, NADPH” value turned out to be 5.2 µmol/min/mg. In assay [2], the “D-amino acid synthesis activity (specific activity), Three-mutation enzyme, NADH” value was determined as 0.12 µmol/min/mg and the “D-amino acid synthesis activity (specific activity), Three-mutation enzyme, NADPH” value worked out at 2.0 µmol/min/mg. Besides, in assay [3], the “D-amino acid synthesis activity (specific activity), Five-mutation enzyme, NADH” value is 0.25 µmol/min/mg and the “D-amino acid synthesis activity (specific activity), Five-mutation enzyme, NADPH” value came out at 0.39 µmol/min/mg. Moreover, in assay [4], the “D-amino acid synthesis activity (specific activity), Six-mutation enzyme, NADH” value stood at 0.14 µmol/min/mg and the “D-amino acid synthesis activity (specific activity), Six-mutation enzyme, NADPH” value came out at 0.44 µmol/min/mg.

`CCC(=O)C(=O)O` [2-oxobutanoic acid]: in assay [1], the “D-amino acid synthesis activity (specific activity), Wild type, NADH” value stood at 0.011 µmol/min/mg and the “D-amino acid synthesis activity (specific activity), Wild type, NADPH” value is 1.4 µmol/min/mg. Besides, in assay [2], the “D-amino acid synthesis activity (specific activity), Three-mutation enzyme, NADH” value was determined as 0.028 µmol/min/mg and the “D-amino acid synthesis activity (specific activity), Three-mutation enzyme, NADPH” value came to 2.2 µmol/min/mg. In addition, in assay [3], the “D-amino acid synthesis activity (specific activity), Five-mutation enzyme, NADH” value was 0.014 µmol/min/mg and the “D-amino acid synthesis activity (specific activity), Five-mutation enzyme, NADPH” value came to 1.6 µmol/min/mg. In addition, in assay [4], the “D-amino acid synthesis activity (specific activity), Six-mutation enzyme, NADH” value worked out at 0.0011 µmol/min/mg and the “D-amino acid synthesis activity (specific activity), Six-mutation enzyme, NADPH” value stood at 0.027 µmol/min/mg.

As to `O=C(O)CCC(=O)C(=O)O` [2-oxoglutaric acid], in assay [1], the “D-amino acid synthesis activity (specific activity), Wild type, NADH” value is on record as “No” and the “D-amino acid synthesis activity (specific activity), Wild type, NADPH” value worked out at 0.11 µmol/min/mg. For the same compound, in assay [2], the “D-amino acid synthesis activity (specific activity), Three-mutation enzyme, NADH” value was “No” and the “D-amino acid synthesis activity (specific activity), Three-mutation enzyme, NADPH” value is reported as “No”. Besides, in assay [3], the “D-amino acid synthesis activity (specific activity), Five-mutation enzyme, NADH” value was “No” and the “D-amino acid synthesis activity (specific activity), Five-mutation enzyme, NADPH” value is “No”. In addition, in assay [4], the “D-amino acid synthesis activity (specific activity), Six-mutation enzyme, NADH” value is listed as “No” and the “D-amino acid synthesis activity (specific activity), Six-mutation enzyme, NADPH” value is “No”.

With `CCCCCCC(=O)C(=O)O` [2-oxooctanoic acid], in assay [1], the “D-amino acid synthesis activity (specific activity), Wild type, NADH” value is “No” and the “D-amino acid synthesis activity (specific activity), Wild type, NADPH” value was 5.8 µmol/min/mg. Also, in assay [2], the “D-amino acid synthesis activity (specific activity), Three-mutation enzyme, NADH” value was found to be 0.039 µmol/min/mg and the “D-amino acid synthesis activity (specific activity), Three-mutation enzyme, NADPH” value came to 8.2 µmol/min/mg. Also, in assay [3], the “D-amino acid synthesis activity (specific activity), Five-mutation enzyme, NADH” value was found to be 0.050 µmol/min/mg and the “D-amino acid synthesis activity (specific activity), Five-mutation enzyme, NADPH” value worked out at 11.2 µmol/min/mg. In assay [4], the “D-amino acid synthesis activity (specific activity), Six-mutation enzyme, NADH” value was found to be 1.0 µmol/min/mg and the “D-amino acid synthesis activity (specific activity), Six-mutation enzyme, NADPH” value came to 9.0 µmol/min/mg.

Turning to `CC(=O)C(=O)O` [2-oxopropanoic acid], in assay [1], the “D-amino acid synthesis activity (specific activity), Wild type, NADH” value was 0.13 µmol/min/mg and the “D-amino acid synthesis activity (specific activity), Wild type, NADPH” value turned out to be 4.7 µmol/min/mg. Also, in assay [2], the “D-amino acid synthesis activity (specific activity), Three-mutation enzyme, NADH” value is 0.000 µmol/min/mg and the “D-amino acid synthesis activity (specific activity), Three-mutation enzyme, NADPH” value was determined as 2.2 µmol/min/mg. Also, in assay [3], the “D-amino acid synthesis activity (specific activity), Five-mutation enzyme, NADH” value came to 0.046 µmol/min/mg and the “D-amino acid synthesis activity (specific activity), Five-mutation enzyme, NADPH” value came to 0.30 µmol/min/mg. For the same compound, in assay [4], the “D-amino acid synthesis activity (specific activity), Six-mutation enzyme, NADH” value is 0.12 µmol/min/mg and the “D-amino acid synthesis activity (specific activity), Six-mutation enzyme, NADPH” value was 0.0070 µmol/min/mg.
